The numbers were not newly measured in publication PMC6492937, which cites them from elsewhere.

This series can be described thus: not told.
Take `CCCCCCCCN1CCCCCC1=O`: the “log partition octanol / water” value is given as 4.04 log10.

As to `CCCCN1CCCCCC1=O`, the “log partition octanol / water” value is recorded as 1.80 log10.

As to `CCCCCCC(=O)N(C)C`, the “log partition octanol / water” value is given as 1.89 log10.

`CCCCCCCC(=O)N(C)C`: the “log partition octanol / water” value is recorded as 2.59 log10.

`CCCCCCCCN1CCCCC1=O`: the “log partition octanol / water” value is 3.41 log10.

With `CCCCCCN1CCCCC1=O`, the “log partition octanol / water” value is on record as 2.3 log10.

With `CCCCCCN1CCCC1=O`, the “log partition octanol / water” value is reported as 2.1 log10.

In the case of `CCCCCCCCN1CCCC1=O`, the “log partition octanol / water” value is recorded as 3.05 log10.

On to `CCCCCC(=O)N(C)C`, for which the “log partition octanol / water” value is on record as 1.36 log10.

For the compound `CCCCCCCCCC(=O)N1CC(O)CC1C(=O)NCC` (stereo not drawn), the “log partition octanol / water” value is reported as 2.86 log10.

On to `CCCCN1CCCCC1=O`, for which the “log partition octanol / water” value is 1.39 log10.

Regarding `CCCCCCCCCCCCN1CCCCCC1=O`, the “log partition octanol / water” value is 6.28 log10.

On to `CCCCN1CCCC1=O`, for which the “log partition octanol / water” value is recorded as 1.02 log10.

For the compound `CCCCCCN1CCCCCC1=O`, the “log partition octanol / water” value was 2.91 log10.

`CCCCCCCCC(=O)N(C)C`: the “log partition octanol / water” value is reported as 3.00 log10.
